The term IC50 denotes the concentration needed to halve the response being measured. Low values mean greater potency in that assay, high ones weaker potency in that assay.

In test [1] the target is Substance-P receptor (Cavia porcellus, UniProt P30547). The experiment in a line: Binding affinity towards Tachykinin receptor 1 binding in guinea pig cerebral cortex membranes was determined using [3H]SP as the radioligand. Type of test: tissue-based, Membrane.
Test [2] addresses T1, Substance-P receptor (Rattus norvegicus, UniProt P14600). The experiment in a line: Binding affinity towards Tachykinin receptor 1 in rat cerebral cortex membranes was determined by using 125 [I]-BHSP as radioligand. Type of test: cell membranes, Membrane.
In test [3] the target is T2, Substance-K receptor (Mesocricetus auratus, UniProt P51144).
T2 sequence (P51144 whole entry): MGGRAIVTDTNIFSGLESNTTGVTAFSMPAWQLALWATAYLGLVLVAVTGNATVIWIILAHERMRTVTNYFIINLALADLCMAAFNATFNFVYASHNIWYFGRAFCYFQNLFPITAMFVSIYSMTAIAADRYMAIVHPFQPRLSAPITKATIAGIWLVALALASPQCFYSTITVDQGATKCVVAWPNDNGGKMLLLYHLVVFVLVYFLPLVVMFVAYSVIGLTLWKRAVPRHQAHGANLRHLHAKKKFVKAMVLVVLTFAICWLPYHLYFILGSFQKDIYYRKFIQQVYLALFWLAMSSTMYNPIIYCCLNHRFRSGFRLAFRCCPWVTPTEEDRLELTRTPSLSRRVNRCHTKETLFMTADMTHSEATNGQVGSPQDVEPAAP
The test is described as follows: Ability to displace the binding of [125I]iodohistidyl-NKA to Tachykinin receptor 2 in hamster urinary bladder membranes was determined. Type of test: cell membranes, Membrane.

The target of test [4] is T3, Neuromedin-K receptor (Rattus norvegicus, UniProt P16177).
T3 sequence (P16177 whole entry): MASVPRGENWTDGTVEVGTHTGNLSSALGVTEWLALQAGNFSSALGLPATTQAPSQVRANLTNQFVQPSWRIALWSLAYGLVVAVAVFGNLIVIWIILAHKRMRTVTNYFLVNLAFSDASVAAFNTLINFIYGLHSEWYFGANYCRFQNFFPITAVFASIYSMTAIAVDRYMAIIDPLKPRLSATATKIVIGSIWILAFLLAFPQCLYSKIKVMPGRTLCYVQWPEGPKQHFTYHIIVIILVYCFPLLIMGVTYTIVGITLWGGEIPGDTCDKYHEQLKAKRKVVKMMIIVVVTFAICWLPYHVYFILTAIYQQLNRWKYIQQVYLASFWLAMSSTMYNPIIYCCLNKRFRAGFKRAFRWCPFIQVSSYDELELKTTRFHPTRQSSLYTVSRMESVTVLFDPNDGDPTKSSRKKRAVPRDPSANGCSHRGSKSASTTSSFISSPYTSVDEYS
The test is described as follows: Ability to displace the binding of [3H]-Senktide to Tachykinin receptor 3 in rat cerebral cortex membranes was determined. Type of test: cell membranes, Membrane.

Test [5] addresses T1, Substance-P receptor. The experiment in a line: The binding affinity towards NK1 receptor in rat cerebral cortex membranes was determined by using 125 [I]-BHSP as radioligand. Type of test: cell membranes, Membrane.

Substance-P receptor (Cavia porcellus, UniProt P30547), sequence (P30547 whole entry): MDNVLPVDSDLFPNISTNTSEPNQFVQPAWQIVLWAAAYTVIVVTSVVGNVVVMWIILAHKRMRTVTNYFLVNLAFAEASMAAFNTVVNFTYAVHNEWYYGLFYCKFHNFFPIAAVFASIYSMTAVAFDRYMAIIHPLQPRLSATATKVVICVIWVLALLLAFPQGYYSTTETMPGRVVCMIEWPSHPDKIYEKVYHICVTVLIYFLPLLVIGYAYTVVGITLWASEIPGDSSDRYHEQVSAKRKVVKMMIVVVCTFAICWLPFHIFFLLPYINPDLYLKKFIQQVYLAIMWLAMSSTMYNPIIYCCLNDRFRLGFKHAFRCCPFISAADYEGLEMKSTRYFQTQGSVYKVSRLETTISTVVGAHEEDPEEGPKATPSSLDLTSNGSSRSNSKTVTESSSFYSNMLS
T1 sequence (P14600 whole entry): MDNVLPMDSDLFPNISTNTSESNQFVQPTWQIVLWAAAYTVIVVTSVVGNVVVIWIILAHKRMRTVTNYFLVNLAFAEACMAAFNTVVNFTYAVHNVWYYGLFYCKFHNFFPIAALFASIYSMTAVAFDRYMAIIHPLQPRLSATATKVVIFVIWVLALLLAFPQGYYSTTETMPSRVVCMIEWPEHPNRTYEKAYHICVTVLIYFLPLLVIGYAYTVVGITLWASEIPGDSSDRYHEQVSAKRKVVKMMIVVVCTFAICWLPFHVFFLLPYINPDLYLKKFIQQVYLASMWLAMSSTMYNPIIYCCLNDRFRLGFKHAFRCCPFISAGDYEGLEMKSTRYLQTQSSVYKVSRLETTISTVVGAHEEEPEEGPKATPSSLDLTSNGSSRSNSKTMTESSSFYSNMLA

Compound `CSCC[C@H](NC(=O)[C@H](CC(C)C)NC(=O)CNC(=O)[C@@H](NC(=O)[C@H](Cc1ccccc1)NC(=O)[C@H](CO)NC(=O)[C@H](CC(=O)O)NC(=O)[C@@H](NC(=O)[C@H](CCCCN)NC(=O)[C@@H](N)Cc1cnc[nH]1)[C@@H](C)O)C(C)C)C(N)=O` [NEUROKININ A] displayed an IC50 in test [1] of 0.0035 µM.
As to `COc1ccccc1CO[C@@H]1C2CCN(CC2)[C@@H]1C(c1ccccc1)c1ccccc1`, the IC50 in test [2] is roughly 10 µM; in test [3] it was no less than 100 µM; in test [4] it was no less than 100 µM; in test [1], 0.15 µM.
Regarding `Clc1ccccc1CCN[C@@H]1C2CCN(CC2)[C@@H]1C(c1ccccc1)c1ccccc1`, the IC50 in test [2] was 7.2 µM; in test [3], no less than 100 µM; in test [4], no less than 100 µM; in test [1] it was 0.16 µM.
For `N[C@@H]1C2CCN(CC2)[C@@H]1C(c1ccccc1)c1ccccc1`, the concentration for half-maximal inhibition (IC50) in test [2] was greater than 10 µM; in test [3], no less than 100 µM; in test [4], no less than 100 µM; in test [1], greater than 10 µM.
As for `Cc1ccccc1CN[C@@H]1C2CCN(CC2)[C@@H]1C(c1ccccc1)c1ccccc1`, the IC50 in test [2] is 0.7 µM; in test [3] it was no less than 100 µM; in test [4], no less than 100 µM; in test [1], 0.227 µM.
As for `CSCC[C@H](NC(=O)[C@H](CC(C)C)NC(=O)CNC(=O)[C@@H](NC(=O)[C@H](Cc1ccccc1)NC(=O)[C@H](Cc1ccccc1)NC(=O)[C@H](CC(=O)O)NC(=O)[C@H](Cc1c[nH]cn1)NC(=O)[C@H](CCSC)NC(=O)[C@@H](N)CC(=O)O)C(C)C)C(N)=O` [NEUROKININ B], the IC50 in test [2] was 0.069 µM; in test [1] it was 0.013 µM.
With `Clc1ccccc1CN[C@@H]1C2CCN(CC2)[C@@H]1C(c1ccccc1)c1ccccc1`, the IC50 in test [2] is 0.11 µM; in test [3], no less than 100 µM; in test [4], no less than 100 µM; in test [1], 0.0085 µM.
Turning to `COc1ccccc1CN[C@@H]1C2CCN(CC2)[C@@H]1Cc1ccccc1`, the IC50 was greater than 1 µM in test [2], no less than 100 µM in test [3], no less than 100 µM in test [4] and 1.51 µM in test [1].
With `FC(F)(F)c1ccccc1CN[C@@H]1C2CCN(CC2)[C@@H]1C(c1ccccc1)c1ccccc1`, the IC50 in test [2] is 0.74 µM; in test [3] it was no less than 100 µM; in test [4], no less than 100 µM; in test [1] it was 0.033 µM.
In the case of `COc1ccccc1CN[C@H]1C2CCN(CC2)[C@@H]1C(c1ccccc1)c1ccccc1`, the IC50 in test [3] and in test [4] was no less than 100 µM in each case.
Take `c1ccc(CN[C@@H]2C3CCN(CC3)[C@@H]2C(c2ccccc2)c2ccccc2)cc1`: the IC50 was 2 µM in test [2], no less than 100 µM in test [3], no less than 100 µM in test [4] and 0.052 µM in test [1].
On to `Fc1ccccc1CN[C@@H]1C2CCN(CC2)[C@@H]1C(c1ccccc1)c1ccccc1`, for which the IC50 is 0.99 µM in test [2], no less than 100 µM in test [3], no less than 100 µM in test [4] and 0.037 µM in test [1].
In the case of `COc1ccccc1CN[C@@H]1C2CCN(CC2)[C@@H]1C(c1ccccc1)c1ccccc1`, the IC50 in test [3] and in test [4] was no less than 100 µM throughout.
As to `Clc1ccccc1CCCN[C@@H]1C2CCN(CC2)[C@@H]1C(c1ccccc1)c1ccccc1`, the IC50 in test [5] was greater than 10 µM; in test [3] it was no less than 100 µM; in test [4], no less than 100 µM; in test [1], 1.1 µM.
`O=C(N[C@@H]1C2CCN(CC2)[C@@H]1C(c1ccccc1)c1ccccc1)c1ccccc1Cl`: the half-maximal inhibitory concentration (IC50) was greater than 10 µM in test [2], no less than 100 µM in test [3], no less than 100 µM in test [4] and greater than 10 µM in test [1].

The record behind these values is ChEMBL document CHEMBL1159145 (Bioorg Med Chem Lett, 1992).
